# Data taken from patent US4690949A, “Therapeutic drug for dementia” (priority 1985, dated 1987).
# Entries after “also recorded” stand apart in the source; their conditions may differ.
# Assays:
# [1] = tested on: aromatic L-amino acid decarboxylase; conditions: cited from earlier work
# patients with dementia [2] = assay: Overall clinical evaluation of effectiveness in dementia; format: in vivo
# From the text: (§1) We have used following various tests: WAIS, Hasegawa's scale for intelligence, Osaka University tests for activity of daily life as well as mental functions, and records of psychological states. Furthermore, free association of letters and categories, paired memory test, Bourdon's test could safely be used to evaluate intelligence of demented patients, even with handicaps in hands or legs. We have done each test 4 times per patient at each point to evaluate the patient's mental state and thus this made us possible to get satisfactory statistical analysis.
# Dementia could be classified into various clinical types according to the ethiology; such as Alzheimer's disease (AZ), senile dementia of Alzheimer type (SDAT), dementia due to the cerebral vascular diseases. We included these various types of dementia in this study.
# (§2) Administration schedule of L-Threo-DOPS and schedule of clinical evaluation are as follows: [drawing 3]
# (§3) Threo-DOPS were administered as follows; immediately after meals at 8:00, 12:00 and 17:00. Various psychological tests were performed at 10:00. The evaluations were performed on the day before and after administration of Threo-DOPS.
# Evaluations were made as described below or by the methods used commonly.
# patients with dementia [3] = assay: Side effects in clinical study; format: in vivo
# Experimental: as §2, §3
# parkinsonian patients = assay: Clinical studies on parkinsonian patients; format: in vivo
# decarboxylase = conditions: compared with L-DOPA; cited from earlier work
# [4] = Acute toxicity LD50 in mice; conditions: mouse, in vivo
# patients with dementia [5] = assay: Hasegawa's scale for intelligence; format: in vivo; design: key to Hasegawa (change after treatment): improved; .dwnarw.: aggravated; →: unchanged; conditions: for Hasegawa (change after treatment): 10 percent change from pretreatment baseline score
# From the text: as §1, §2, §3
# An increase or decrease of 10 percent from the pretreatment baseline score was regarded as "improved" or "aggravated".
# patients with dementia [6] = assay: N test (N mental function test); format: in vivo; design: key to N test (change after treatment): improved; .dwnarw.: aggravated; →: unchanged
# From the text: as §1, §2, §3
# Inoue, O.: Medical Journal of the Osaka University 26, 375-394 (1974)
# patients with dementia [7] = assay: Bourdon's test (Bourdon's delection test); format: in vivo; design: key to Bourdon's test (change after treatment): improved; .dwnarw.: aggravated; →: unchanged
# From the text: as §1, §2, §3
# 3. Bourdon's delection test:
# Matsumoto K and Samezima K: Introduction to Clinical Psychology Tests, Igaku Shuppan Sha (Tokyo), 1977, pp. 83-87
# In this test, the original method was modified by enlarging the chart to make it easier for patients to see and conducting 4 test runs starting at different lines to investigate how far the task could be done in 30 seconds.
# patients with dementia [8] = assay: Related words paired memory test; format: in vivo; design: key to Related words paired memory test (change after treatment): improved; .dwnarw.: aggravated; →: unchanged
# From the text: as §1, §2, §3
# This retention test using 10 pairs of related words was conducted in 4 trials and the results were compared before and after the treatment.
# patients with dementia [9] = assay: Digit symbol test (modified WAIS); format: in vivo
# From the text: as §1, §2, §3
# The original method of WAIS was partially modified. The test was repeated 4 times and counted time-in seconds which was required to finish one line or checked how far the subject could go along one line in 30 seconds.
# patients with dementia [10] = assay: Free association (letters and categories); format: in vivo; design: key to Free association, Letter / Free association, Category: improved; .dwnarw.: aggravated; →: unchanged
# From the text: as §1, §2
# Threo-DOPS were administered as follows; immediately after meals at 8:00, 12:00 and 17:00. Various psychological tests were performed at 10:00. The evaluations were performed on the day before and after administration of Threo-DOPS. […]
# In this test, the subject was asked to say what would occur in mind by free association in response to the 4 letters of " " (a), " " (ka), " " (sa) and " " (ha) and the four categories of "fruits" or "vegetables", "flowers or trees", "animals" and "countries of the world" within 90 seconds and the number of words every 30 seconds was counted.
# patients with dementia [11] = assay: P300 auditory evoked brain potential; format: in vivo; design: key: +: appeared; -: disappeared
# Experimental: as §2, §3
# When two kinds of auditory stimuli are given randomly, a positive brain potential (P300) appears with a latency of about 300 msec in normal subjects and this response has been considered to reflect gnostic function. [Sutton, S. et al.: Science 150, 1187-1188 (1965)].
# Using the method of Goodin, D. S. et al., the present inventors asked the subject to hear sounds of 1000 Hz and also 2000 Hz randomly given at intervals of about 1 second and to count the sounds of 2000 Hz which appeared 15% of the total number of sounds which were 400. The evoked potentials were averaged and totalled for each 1000 Hz and 2000 Hz stimulations and the latency and the amplitude of P300 were measured.
# [12] = Clinical comparison of L-isomer and DL-form activity; format: in vivo
# [13] = Case 7, left thalamic hemorrhage (case report)
# [14] = Case 9, cerebral infarction (case report)
# [15] = Case 1, Alzheimer's disease (case report)
smiles,measurement,setting,value
"N[C@@H](Cc1ccc(O)c(O)c1)C(=O)O [L-DOPA, reference compound]",Decarboxylation to dopamine,[1]; in the living body,"decarboxylated to the corresponding catecholamine, dopamine"
"N[C@H](C(=O)O)[C@H](O)c1ccc(O)c(O)c1 (relative stereo) [Threo-DOPS, threo-3,4-dihydroxyphenylserine]",Effect on symptoms of dementia,patients with dementia [2]; summary statement,improving effect on some symptoms of dementia
same,Side effects,"patients with dementia [3]; human, in vivo",without any appreciable side effects
same,Effectiveness as a NE precursor,parkinsonian patients,effectiveness of Threo-DOPS as a NE precursor
same,Conversion to norepinephrine (NE),[1]; in the living body,decarboxylated by an action of an aromatic L-amino acid decarboxylase existing in the living body and converted into norepinephrine (NE); also recorded: gradually converted to NE in the living body
same,Rate of decarboxylation relative to L-DOPA,[1]; previous study of the present applicants,considerably smaller than that of L-DOPA
same,Effectiveness of combined use of DCI,decarboxylase,not so effective as that for L-DOPA
N[C@H](C(=O)O)[C@H](O)c1ccc(O)c(O)c1 (relative stereo) [DL-Threo-DOPS],Side effects (clinically),"patients with dementia [3]; human, in vivo",almost no side effect has been observed
same,LD50,[4]; ip,~10000 mg/kg
same,LD50,[4]; po,≥ 10000 mg/kg
N[C@H](C(=O)O)[C@H](O)c1ccc(O)c(O)c1 [L-Threo-DOPS],Hasegawa (change after treatment),"patients with dementia [5]; Case 3, CI",.dwnarw.
same,Hasegawa (change after treatment),"patients with dementia [5]; Case 6, AZ/CI, person",→
same,Hasegawa's scale,patients with dementia [5]; [13],Improvements were obtained
same,Hasegawa's scale,patients with dementia [5]; [14],Improvements were found
same,N test (change after treatment),"patients with dementia [6]; Case 5, CI",→
same,N test (change after treatment),"patients with dementia [6]; Case 6, AZ/CI, person",→
same,N mental function test,patients with dementia [6]; [13],Improvements were obtained
same,N mental function test,patients with dementia [6]; [14],Improvements were found
same,Bourdon's test (change after treatment),"patients with dementia [7]; Case 1, AZ",→
same,Bourdon's test (change after treatment),"patients with dementia [7]; Case 2, AZ",→
same,Bourdon's test (change after treatment),"patients with dementia [7]; Case 3, CI",→
same,"Bourdon's test, statistics","patients with dementia [7]; Case 4, CI",** (P<0.02)
same,Bourdon's test (change after treatment),"patients with dementia [7]; Case 6, AZ/CI, person",→
same,Bourdon's test (change after treatment),"patients with dementia [7]; Case 9, CI",→
same,"Related words paired memory test, statistics","patients with dementia [8]; Case 1, AZ",*** (P<0.01)
same,Related words paired memory test,patients with dementia [8]; [15],Improvements were found
same,"Related words paired memory test, statistics","patients with dementia [8]; Case 2, AZ",*** (P<0.01)
same,Related words paired memory test (change after treatment),"patients with dementia [8]; Case 4, CI",→
same,Related words paired memory test (change after treatment),"patients with dementia [8]; Case 5, CI",.uparw.
same,"Related words paired memory test, statistics","patients with dementia [8]; Case 5, CI",* (P<0.05)
same,Related words paired memory test (change after treatment),"patients with dementia [8]; Case 6, AZ/CI, person",→
same,"Related words paired memory test, statistics","patients with dementia [8]; Case 9, CI",** (P<0.02)
same,Related words paired memory test,patients with dementia [8]; [14],Improvements were found
same,"Digit symbol test, statistics","patients with dementia [9]; Case 1, AZ",* (P<0.05)
same,Digit symbol test,patients with dementia [9]; [15],Improvements were found
same,"Free association, Category","patients with dementia [10]; Case 2, AZ",→
same,"Free association, Letter","patients with dementia [10]; Case 2, AZ",→
same,"Free association, Category","patients with dementia [10]; Case 3, CI",→
same,"Free association, Category","patients with dementia [10]; Case 4, CI",→
same,"Free association, Letter","patients with dementia [10]; Case 4, CI",→
same,"Free association, Category","patients with dementia [10]; Case 5, CI",→
same,"Free association, Letter","patients with dementia [10]; Case 5, CI",→
same,"Free association, Category","patients with dementia [10]; Case 6, AZ/CI, person",→
same,"Free association, Letter","patients with dementia [10]; Case 6, AZ/CI, person",→
same,Free association of things,patients with dementia [10]; [13],Improvements were obtained
same,"Free association, Category","patients with dementia [10]; Case 9, CI",→
same,"Free association, Letter","patients with dementia [10]; Case 9, CI",→
same,P300,"patients with dementia [11]; Case 2, AZ",+
same,P300,"patients with dementia [11]; Case 3, CI",-
same,P300,"patients with dementia [11]; Case 4, CI",+
same,P300,"patients with dementia [11]; Case 5, CI",-
same,P300,"patients with dementia [11]; Case 6, AZ/CI, person",-
same,P300,patients with dementia [11]; [13],"could not be observed before the treatment, appeared after the treatment"
same,P300,"patients with dementia [11]; Case 9, CI",-
same,Overall evaluation,"patients with dementia [2]; Case 1, Alzheimer's disease",moderately improved
same,Global evaluation,"patients with dementia [2]; Case 7, left thalamic hemorrhage",markedly improved
same,Global evaluation,"patients with dementia [2]; Case 9, cerebral infarction",moderately improved
same,Evaluation parameters showing aggravation,"patients with dementia [2]; Cases 1 to 9, Table 1",only a few evaluation parameters showed aggravation
same,Subjects showing improvements in one or more tests,"patients with dementia [2]; Cases 1 to 9, Table 1",all subjects but Case 6 showed improvements in one or more tests
same,Overall evaluation: efficacy against symptoms of patients with dementia,patients with dementia [2]; as a whole,had efficacy against symptoms of patients with dementia
same,Side effects,"patients with dementia [3]; Case 9, cerebral infarction",No remarkable side effects were found
same,Side effects (clinically),"patients with dementia [3]; human, in vivo",almost no side effect has been observed
same,Effect of L-isomer at half the amount of the DL-mixture,[12]; administered in half the amount of the DL-mixture,nearly the same effect as the DL-mixture
same,Activity of L-isomer relative to DL-form,[12]; clinical study,twice as active as the DL-form
same,LD50,[4]; ip,~10000 mg/kg
same,LD50,[4]; po,≥ 10000 mg/kg
